Results taken from PMC5701174 (Scientific Reports, 2017).

Target: T1, PlaA (rPlaA, Strep-PlaA) (Legionella pneumophila, UniProt A0A378KFD4)
T1 construct: gene NCTC12000_02489
Conditions: 37 °C, 3 h; 25 ng protein in 50 µl; without ProA

T1 sequence (A0A378KFD4 20-309 limits assumed): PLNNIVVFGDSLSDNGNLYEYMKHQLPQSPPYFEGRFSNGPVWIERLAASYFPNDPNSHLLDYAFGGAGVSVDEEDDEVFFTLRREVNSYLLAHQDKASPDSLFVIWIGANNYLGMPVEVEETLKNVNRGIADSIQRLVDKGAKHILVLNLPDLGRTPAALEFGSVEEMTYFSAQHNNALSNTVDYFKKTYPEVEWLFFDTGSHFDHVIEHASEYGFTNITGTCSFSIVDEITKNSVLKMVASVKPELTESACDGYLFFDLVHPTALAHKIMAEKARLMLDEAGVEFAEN

| Structure (SMILES) | free fatty acid quantification |
| --- | --- |
| CCCCCCCCCCCCCCCC(=O)OC[C@@H](O)COP(=O)([O-])OCC[N+](C)(C)C [LPC, 1-monopalmitoyllyso-phosphatidylcholine] | rPlaA possessed lipase and LPLA activities, the latter especially towards LPG and LPC |
| CCCCCCCCCCCCCCCC(=O)OC[C@@H](O)COP(=O)(O)OCC(O)CO (some centres unmarked) [LPG, 1-mono-palmitoyllysophosphatidylglycerol] | rPlaA possessed lipase and LPLA activities, the latter especially towards LPG and LPC |
